SMILES strings stand for the structures. Read-outs that look alike come from different tables or passages of the source.

This note sets out measurements from patent US20120010075A1 (priority 2009, published 2012).

Series [1] concerns Leptosphaeria nodorum (LEPTNO). The series is described as follows: In vitro fungitoxicity of hydrazones with and without copper towards Leptosphaeria nodorum (Example 26). It is filed as cell-based. Particulars: 72 h at 25° C.; for inhibition of growth at 0.05 µg/mL: Parastagonospora nodorum, 72 h, copper-minus medium, read-out: LEPTNO % Inhn. Minus Copper Observed.
Series [2] has as its system Leptosphaeria nodorum (LEPTNO). The series is described as follows: Isolated metal-hydrazone complexes versus parent hydrazones, in vitro, Leptosphaeria nodorum (Example 31, Table 7). Particulars: Parastagonospora nodorum; 0.1 μg/mL; copper-minus medium; 72 h. It is filed as cell-based.
Another series concerns Phytophthora infestans. It is filed as in vivo, Phytophthora infestans on tomato. The conditions noted are these: applied 24 h before inoculation, assessed 7 days after inoculation.
[3] abbreviates: compound 0.05 μg/mL, copper-plus medium (CuCl2.2H2O).
[4] abbreviates: hydrazone 50 ppm + 50 μM CuCl2.2H2O, tomato.
The mark [5] stands for this setting: test compound Concn. 0.05 μg/mL.
The mark [6] stands for this setting: copper-plus medium (CuCl2 10 μM), test compound Concn. 0.05 μg/mL.
[7] abbreviates: hydrazone 50 ppm with 50 μM CuCl2.2H2O, tomato late blight.

The inhibition is the relative decrease from the control value, in per cent. In general, melting point refers to the temperature, or range, at which the solid turns liquid. The compound `C/C(=N\NC(=O)c1cccc(Cl)c1)c1cc(Cl)cc(Cl)c1O` [Example 135] came in with a melting point of 245 to 246 °C. In addition, the inhibition of growth at 0.05 µg/mL in series [1] (compound 0.05 μg/mL) stood at 0.2%. Besides, the “LEPTNO % Inhn. Plus Copper Observed” value in series [1] (setting [3]) turned out to be 98.6%. Moreover, in series [2], the inhibition at 0.1 µg/mL is 20.6%. Further, in the series on Phytophthora infestans (setting [4]), the “TLB % Control” value turned out to be 96.0%.

The compound `C/C(=N\NC(=O)c1ccc(Cl)cc1)c1cc(Cl)cc(Cl)c1O` [Example 136] displayed a melting point of 260 to 262 °C. Further, the inhibition of growth at 0.05 µg/mL in series [1] (compound 0.05 μg/mL) was found to be 9.7%. In addition, the “LEPTNO % Inhn. Plus Copper Observed” value in series [1] (setting [3]) was found to be 98.6%. The inhibition at 0.1 µg/mL in series [2] stood at 34.7%. Besides, the “TLB % Control” value in the series on Phytophthora infestans (setting [4]) came to 95.0%.

Compound `C/C(=N\NC(=O)c1ccccc1C)c1cc(Cl)cc(Cl)c1O` [Example 137] returned a melting point of 226 to 230 °C. Also, in series [1] (compound 0.05 μg/mL), the inhibition of growth at 0.05 µg/mL was found to be 4.5%. In series [1] (setting [3]), the “LEPTNO % Inhn. Plus Copper Observed” value came to 98.5%. The inhibition at 0.1 µg/mL in series [2] worked out at 27.2%. Further, the “TLB % Control” value in the series on Phytophthora infestans (setting [4]) was 74.0%.

For the compound `O=C(N/N=C/c1cc(Cl)cc(Br)c1O)c1ccccc1` [Example 151], the inhibition of growth at 0.05 µg/mL in series [1] (compound 0.05 μg/mL) worked out at 11.8%. In addition, the “LEPTNO % Inhn. Plus Copper Observed” value in series [1] (setting [3]) is given as 97.6%. The inhibition at 0.1 µg/mL in series [2] amounted to 30.9%. Further, the “TLB % Control” value in the series on Phytophthora infestans (setting [4]) amounted to 83.0%.

On to `O=C(N/N=C/c1cc(Cl)cc(Br)c1O)c1ccc(Cl)cc1` [Example 159], for which the inhibition of growth at 0.05 µg/mL in series [1] (compound 0.05 μg/mL) is 11.4%. Further, in series [1] (setting [3]), the “LEPTNO % Inhn. Plus Copper Observed” value came to 98.5%. The inhibition at 0.1 µg/mL in series [2] was 27.4%. The “TLB % Control” value in the series with Phytophthora infestans (setting [4]) was found to be 91.9%.

Take `O=C(N/N=C/c1cc(Cl)ccc1O)c1ccc(Cl)cc1` [Example 172]: the inhibition of growth at 0.05 µg/mL in series [1] (compound 0.05 μg/mL) was 13.2%. Further, the “LEPTNO % Inhn. Plus Copper Observed” value in series [1] (setting [3]) worked out at 97.9%. Also, in series [2], the inhibition at 0.1 µg/mL is 28.7%. Further, the “TLB % Control” value in the series with Phytophthora infestans (setting [4]) worked out at 27.1%.

Regarding `O=C(N/N=C/c1cc(Cl)cc(Br)c1O)c1ccccc1O` [Example 195], the inhibition of growth at 0.05 µg/mL in series [1] (compound 0.05 μg/mL) came out at 19.2%. In series [1] (setting [3]), the “LEPTNO % Inhn. Plus Copper Observed” value stood at 97.9%. The inhibition at 0.1 µg/mL in series [2] was determined as 21.7%. The “TLB % Control” value with Phytophthora infestans (setting [4]) was 89.5%.

For `O=C(N/N=C/c1cccc(Cl)c1O)c1ccccc1` [Example 231], the melting point is 188 to 189 °C. Besides, in series [1] (compound 0.05 μg/mL), the inhibition of growth at 0.05 µg/mL came to 0%. In addition, the “LEPTNO % Inhn. Plus Copper Observed” value in series [1] (setting [3]) is given as 98.5%. The inhibition at 0.1 µg/mL in series [2] turned out to be 10.7%. Also, in the series with Phytophthora infestans (setting [4]), the “TLB % Control” value amounted to 81.3%.

As to `O=C(N/N=C/c1ccc(Cl)cc1O)c1ccccc1` [Example 233], the inhibition of growth at 0.05 µg/mL in series [1] (compound 0.05 μg/mL) was determined as 5.6%. Moreover, in series [1] (setting [3]), the “LEPTNO % Inhn. Plus Copper Observed” value worked out at 98.1%. Also, the inhibition at 0.1 µg/mL in series [2] turned out to be 8.4%. Also, the “TLB % Control” value in the series with Phytophthora infestans (setting [4]) came to 88.1%.

As to `O=C(N/N=C/c1c(O)cccc1Cl)c1ccccc1` [Example 236], the melting point is 247 to 248 °C. Further, the inhibition of growth at 0.05 µg/mL in series [1] (compound 0.05 μg/mL) was 3.5%. Moreover, the “LEPTNO % Inhn. Plus Copper Observed” value in series [1] (setting [3]) amounted to 97.0%. In series [2], the inhibition at 0.1 µg/mL worked out at 4.7%. Besides, the “TLB % Control” value with Phytophthora infestans (setting [4]) was 88.1%.

Compound `O=C(N/N=C/c1ccc(Cl)c(Cl)c1O)c1ccccc1` [Example 238] registered a melting point of 249 to 252 °C. Besides, the inhibition of growth at 0.05 µg/mL in series [1] (compound 0.05 μg/mL) was determined as 0.5%. For the same compound, in series [1] (setting [3]), the “LEPTNO % Inhn. Plus Copper Observed” value was 97.6%. In addition, in series [2], the inhibition at 0.1 µg/mL is 20%. In addition, in the series with Phytophthora infestans (setting [4]), the “TLB % Control” value is recorded as 92.5%.

As for `C/C(=N\NC(=O)c1cccc(C)c1)c1cc(Cl)cc(Cl)c1O` [Example 278], the melting point was 221 to 223 °C. In addition, the inhibition of growth at 0.05 µg/mL in series [1] (compound 0.05 μg/mL) worked out at 1.7%. Further, the “LEPTNO % Inhn. Plus Copper Observed” value in series [1] (setting [3]) came to 97.7%. For the same compound, the inhibition at 0.1 µg/mL in series [2] was determined as 16.2%. Moreover, the “TLB % Control” value in the series with Phytophthora infestans (setting [4]) was determined as 90.0%.

For `C/C(=N\NC(=O)c1ccc(C)cc1)c1cc(Cl)cc(Cl)c1O` [Example 279], the melting point fell in the range of 262 to 264 °C. The inhibition of growth at 0.05 µg/mL in series [1] (compound 0.05 μg/mL) came to 5.1%. Also, in series [1] (setting [3]), the “LEPTNO % Inhn. Plus Copper Observed” value is recorded as 98.6%. Further, in series [2], the inhibition at 0.1 µg/mL amounted to 19.9%. Moreover, the “TLB % Control” value in the series on Phytophthora infestans (setting [4]) stood at 96.0%.

In turn, `COc1cccc(/C(C)=N/NC(=O)c2ccccc2)c1O` [Example 299] had a melting point of 146 to 148 °C. In series [1] (setting [5]), the inhibition of growth at 0.05 µg/mL stood at 0%. Besides, the “LEPTNO % Inhn. Plus Copper Observed” value in series [1] (setting [6]) was 97.9%. Moreover, the inhibition at 0.1 µg/mL in series [2] turned out to be 18.6%. In the series with Phytophthora infestans (setting [7]), the “TLB % Control” value was 74.0%.

As to `COc1cccc(/C(C)=N/NC(=O)c2ccccc2C)c1O` [Example 300], the melting point was in the range of 208 to 209 °C. Also, the inhibition of growth at 0.05 µg/mL in series [1] (setting [5]) came to 0%. In addition, the “LEPTNO % Inhn. Plus Copper Observed” value in series [1] (setting [6]) is listed as 97.2%. In addition, the inhibition at 0.1 µg/mL in series [2] stood at 2.5%. Also, the “TLB % Control” value in the series with Phytophthora infestans (setting [7]) amounted to 70.0%.

For the compound `COc1cccc(/C(C)=N/NC(=O)c2cccc(C)c2)c1O` [Example 301], the melting point was 121 to 123 °C. Further, the inhibition of growth at 0.05 µg/mL in series [1] (setting [5]) was 0%. In series [1] (setting [6]), the “LEPTNO % Inhn. Plus Copper Observed” value amounted to 97.9%. Moreover, the inhibition at 0.1 µg/mL in series [2] was determined as 3.5%. Also, the “TLB % Control” value with Phytophthora infestans (setting [7]) is recorded as 82.0%.

Consider `COc1cccc(/C(C)=N/NC(=O)c2ccc(C)cc2)c1O` [Example 302], for which the melting point is 146 to 148 °C. Also, the inhibition of growth at 0.05 µg/mL in series [1] (setting [5]) stood at 0%. Besides, the “LEPTNO % Inhn. Plus Copper Observed” value in series [1] (setting [6]) is listed as 96.4%. Besides, the inhibition at 0.1 µg/mL in series [2] came to 22.9%. The “TLB % Control” value in the series on Phytophthora infestans (setting [7]) is recorded as 82.0%.

Take `COc1cccc(/C(C)=N/NC(=O)c2ccccc2Cl)c1O` [Example 303]: the melting point lay within 233 to 234 °C. The inhibition of growth at 0.05 µg/mL in series [1] (setting [5]) turned out to be 0%. Further, the “LEPTNO % Inhn. Plus Copper Observed” value in series [1] (setting [6]) is 98.0%. The inhibition at 0.1 µg/mL in series [2] worked out at 10.6%. In the series with Phytophthora infestans (setting [7]), the “TLB % Control” value was 45.0%.

As for `COc1cccc(/C(C)=N/NC(=O)c2cccc(Cl)c2)c1O` [Example 304], the melting point fell in the range of 146 to 148 °C. Besides, the inhibition of growth at 0.05 µg/mL in series [1] (setting [5]) turned out to be 0%. Moreover, in series [1] (setting [6]), the “LEPTNO % Inhn. Plus Copper Observed” value came to 97.9%. The inhibition at 0.1 µg/mL in series [2] came out at 13.3%. For the same compound, the “TLB % Control” value in the series on Phytophthora infestans (setting [7]) is 77.0%.

`COc1cccc(/C(C)=N/NC(=O)c2ccc(Cl)cc2)c1O` [Example 305] returned a melting point of 168 to 170 °C. Further, the inhibition of growth at 0.05 µg/mL in series [1] (setting [5]) was found to be 0.5%. For the same compound, the “LEPTNO % Inhn. Plus Copper Observed” value in series [1] (setting [6]) was 98.3%. Further, the inhibition at 0.1 µg/mL in series [2] came to 27.1%. Moreover, the “TLB % Control” value with Phytophthora infestans (setting [7]) is recorded as 61.0%.

For `O=C(N/N=C/c1cccc(C(F)(F)F)c1O)c1ccc(Cl)cc1` [Example 348], the melting point lay within 215 to 216 °C. Moreover, in series [1] (setting [5]), the inhibition of growth at 0.05 µg/mL came out at 16.3%. Besides, the “LEPTNO % Inhn. Plus Copper Observed” value in series [1] (setting [6]) was 98.3%. Also, the inhibition at 0.1 µg/mL in series [2] stood at 23.9%. Further, the “TLB % Control” value with Phytophthora infestans (setting [7]) is given as 100.0%.

Compound `O=C(N/N=C/c1ccc(Cl)c(Cl)c1O)c1ccc(Cl)cc1` [Example 359] showed a melting point of 260 to 262 °C. The inhibition of growth at 0.05 µg/mL in series [1] (setting [5]) stood at 41.4%. Moreover, in series [1] (setting [6]), the “LEPTNO % Inhn. Plus Copper Observed” value came to 97.3%. For the same compound, the inhibition at 0.1 µg/mL in series [2] stood at 24.1%. The “TLB % Control” value in the series on Phytophthora infestans (setting [7]) was 92.0%.

As for `O=C(N/N=C/c1ccc(Cl)cc1O)c1ccc(Cl)cc1` [Example 392], in series [1] (setting [5]), the inhibition of growth at 0.05 µg/mL turned out to be 15.8%. Further, in series [1] (setting [6]), the “LEPTNO % Inhn. Plus Copper Observed” value amounted to 97.9%. Besides, the inhibition at 0.1 µg/mL in series [2] stood at 22.8%. The “TLB % Control” value with Phytophthora infestans (setting [7]) is reported as 46.0%.
